Experimental data taken from PubChem BioAssay AID2137 (Broad Institute, 2009).
Values joined by “and” are separate entries in the source; they are usually repeats but may differ in a detail not shown here. Equal entries are not always repeated. Records with an inconclusive call do not appear. Active and inactive are the calls of the source.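 The calls were made as follows: active = IC50 at most ten times the top tested dose; inconclusive = flat fit with 30 to 70% activity, or an invalid poor fit; inactive = the rest.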

Each compound was assayed against S. pyogenes M1 GAS streptokinase expression, plasminogen activation OD405 (assay: S. pyogenes plasminogen activation signal decrease – absorbance readout, M1 GAS, streptokinase expression inhibitor project, dose response (AID 2137)).
`CCC1CCCCN1S(=O)(=O)c1ccc(NC(=O)c2nc(S(C)(=O)=O)ncc2Cl)cc1` (stereo not given) gave an IC50 of 1.17 µM. In the case of `O=C(CSc1nc(-c2ccc(Cl)cc2)[nH]c(=O)n1)Nc1cccc(Cl)c1`, the IC50 is reported as 3.54 µM. `COc1ccc(-c2csc3ncnc(N4CCN(c5ccccc5Cl)CC4)c23)cc1` gave an IC50 of 6.67 µM. For `CC[C@@H](C)[C@H](NC(=O)OC(C)(C)C)c1nnc(S(=O)(=O)Cc2cc(C)ccc2C)o1`, the IC50 was 4.15 µM. `CCCCn1c(=O)c(C(=O)NCc2ccccc2)c(O)c2ccccc21` was tested, and the IC50 was > 500 µM (inactive). `COc1cccc(C(=O)n2c3ccccc3c3ccccc32)c1` showed an IC50 of 13.7 µM. `CC1CCN(C(=O)N2c3ccccc3Sc3ccccc32)CC1` showed an IC50 of 15 µM. `COc1ccc(Nc2ncnc3scc(-c4ccc(OC)cc4)c23)cc1` gave an IC50 of 5.7 µM. With `Cc1cc(C)c2nc(-c3ccncc3)cc(C(=O)N3CCN(Cc4ccccc4Cl)CC3)c2c1` the IC50 was 9.54 µM. `Cc1ccc(/C=C/c2ccc(=O)n(Cc3ccccc3Cl)n2)cc1` showed an IC50 of 14.2 µM. In the case of `O=C(CSc1ccccc1)N1c2ccccc2Sc2ccccc21`, the IC50 is reported as 9.11 µM. With `CC(=O)N(C)c1ccc(OCC(O)Cn2c3ccc(Cl)cc3c3cc(Cl)ccc32)cc1` (stereo not given) the IC50 was 4.94 µM. For `COc1ccc(Sc2ccc(NC(=O)c3ccccc3Cl)cc2C#N)cc1`, the IC50 was 2.27 µM. For `Clc1cccc(Cl)c1CSc1nnc(/C=C/c2ccccc2)o1`, the IC50 was 4.39 µM. Work on `Cc1cc2oc(=O)cc(CN(C)Cc3ccccc3)c2cc1C(C)C` yielded an IC50 of 9.18 µM. `COCc1cc(Sc2c(Cl)cccc2Cl)nc(-c2ccccc2)n1` was tested, and the IC50 was 7.59 µM. `Cc1cc(C)c(NC(=O)c2oc3ccccc3c2COc2ccccc2)c(C)c1` showed an IC50 of 98.8 µM. With `Cn1c(=O)c2c(nc(SCc3ccccc3)n2Cc2ccc(Cl)cc2)n(C)c1=O` the IC50 was 5.9 µM. `O=C(c1ccc(Cl)cc1)n1c2ccccc2c2ccccc21` showed an IC50 of 18.2 µM. In the case of `COc1ccc2oc(C(=O)N3CCN(C(c4ccccc4)c4ccccc4)CC3)c(C)c2c1`, the IC50 is reported as 24.9 µM. For `FC(F)(F)c1cccc(-c2cc3ccccc3nc2N2CCCC2)c1`, the IC50 was 3.94 µM. In the case of `CC(C)c1ccc(NC(=O)c2cc(S(=O)(=O)NCC3COc4ccccc4O3)ccc2F)cc1` (stereo not given), the IC50 is reported as 3.65 µM. `CCOC(=O)c1c(NC(=O)c2cccs2)sc(CC)c1-c1cccs1` was tested, and the IC50 was 21.8 µM. In the case of `C=CCn1c(SCC#N)nc2c(c1=O)C(C)(C)Cc1ccccc1-2`, the IC50 is reported as 10.1 µM. With `CC1CC(C)CN(c2ncc3c(n2)CC(c2ccccc2Cl)CC3=O)C1` (stereo not given) the IC50 was 2.26 µM. With `O=C(NC(=S)Nc1ccccc1N1CCCC1)c1ccccc1Br` the IC50 was 23.6 µM. For `FC(F)(F)c1nc(N2CCN(c3ccccc3)CC2)nc2c1CCCCC2`, the IC50 was 1.73 µM. `Cc1ccc(C(=O)N2c3ccccc3Sc3ccccc32)cc1` gave an IC50 of 46.5 µM. Work on `COc1ccc(-c2nc(-c3cccs3)c(-c3cccs3)[nH]2)cc1OC` yielded an IC50 of 5.93 µM. For `Cc1noc(C)c1CSc1nc2sc(C)c(C)c2c(=O)n1C1CCCC1`, the IC50 was 3.13 µM. In the case of `CC(C)(C)N/N=C1\CC(c2ccccc2)Oc2ccccc21` (stereo not given), the IC50 is reported as 7.95 µM. In the case of `Cc1cc(C(=O)OC(C(=O)Nc2cccc(C(F)(F)F)c2)c2ccccc2)c(C)o1` (stereo not given), the IC50 is reported as 7.09 µM. `N#Cc1ccc(C(=O)n2c3ccccc3c3ccccc32)cc1` showed an IC50 of 57.7 µM. `COc1ccc(SCC(=O)N2c3ccccc3Sc3ccccc32)cc1` gave an IC50 of 6.54 µM. In the case of `O=C(c1ccc(F)cc1)n1c2ccccc2c2ccccc21`, the IC50 is reported as 6.27 µM. Compound `O=C(CSc1cccs1)N1c2ccccc2Sc2ccccc21` has an IC50 of 33.8 µM. For `O=C(CSc1ccncc1)N1c2ccccc2Sc2ccccc21`, the IC50 was 83.6 µM. `O=C(Nc1cc(S(=O)(=O)Nc2ccc(Cl)cc2)ccc1N1CCCCC1)c1ccc(F)cc1` gave an IC50 of 4 µM. With `O=C(c1ccc(OC(F)(F)F)cc1)n1c2ccccc2c2ccccc21` the IC50 was 6.36 µM. For `O=C(CSc1ccc(Cl)cc1)N1c2ccccc2Sc2ccccc21`, the IC50 was 3.1 µM. Compound `CCCOc1ccc(-c2nc(OC)c3ccccc3n2)cc1` has an IC50 of 4.03 µM. `Cc1ccc(C(=O)n2c3ccccc3c3ccccc32)cc1` showed an IC50 of 2.89 µM. Compound `CCN(CC)C(=S)SCC(=O)Nc1nc(-c2ccccc2)c(-c2ccccc2)o1` has an IC50 of 20.5 µM. `Cc1ccc(C(=O)C(c2ccccc2)N2Cc3ccccc3C2=N)cc1` (stereo not given) showed an IC50 of 8.38 µM. `CN(C)c1ccc(C(=O)n2c3ccccc3c3ccccc32)cc1` gave an IC50 of 4.09 µM. Compound `O=C(c1ccccc1C(F)(F)F)n1c2ccccc2c2ccccc21` has an IC50 of 6.62 µM. For `Cc1ccc(SCC(=O)N2c3ccccc3Sc3ccccc32)cc1`, the IC50 was 7.6 µM and 5.6 µM. `CN1C(=O)/C(=C\c2cccn2-c2ccc3ccccc3c2)C(=O)NC1=S` showed an IC50 of 5.42 µM. Compound `COC(=O)c1ccccc1NC(=O)c1nc(S(=O)(=O)Cc2ccccc2)ncc1Cl` has an IC50 of 3.37 µM. With `FC(F)(F)c1cc(-c2ccco2)nc(NCc2ccc(Cl)cc2)n1` the IC50 was > 500 µM (inactive).
